Test results: US8471004B2, “Bicyclic compounds” (Hoffman-La Roche Inc., priority 2009, dated 2013)

What follows are compounds tested against T1, human chemokine receptor 2 isoform B (Homo sapiens, UniProt P41597) (assay: Calcium mobilization assay (CHOK1-CCR2B-A5 cells, FLIPR, MCP-1 stimulated)). Settings: Ca mobilisation assay for CCR2, antagonist activity, 50% inhibition of specific calcium increases after 20 nM MCP-1.
T1 construct: host or cells: CHOK1-CCR2B-A5 (CHO-K1)
T1 sequence (P41597 1-360 isoform P41597-2): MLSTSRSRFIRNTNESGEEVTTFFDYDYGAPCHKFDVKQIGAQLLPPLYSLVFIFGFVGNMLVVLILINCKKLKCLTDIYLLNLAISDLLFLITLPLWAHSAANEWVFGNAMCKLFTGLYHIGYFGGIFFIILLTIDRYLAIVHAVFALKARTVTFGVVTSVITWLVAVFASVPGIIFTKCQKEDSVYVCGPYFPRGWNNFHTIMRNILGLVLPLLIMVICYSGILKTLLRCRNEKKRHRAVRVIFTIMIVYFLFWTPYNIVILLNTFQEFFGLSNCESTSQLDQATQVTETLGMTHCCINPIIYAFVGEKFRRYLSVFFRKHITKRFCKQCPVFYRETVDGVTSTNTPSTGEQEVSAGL
Assay type: cell-based
Method: CHOK1-CCR2B-A5 cells (from Euroscreen) stably overexpressing the human chemokine receptor 2 isoform B were cultured in Nutrient Hams F12 medium supplemented with 5% FBS, 100 U/ml penicillin, 100 μg/ml streptomycin, 400 μg/ml G418 and 5 μg/ml puromycin.
For the assay cells were grown overnight in 384-well black clear flat bottom polystyrene plates (Costar) at 37° C. at 5% CO2. After washing with DMEM, 20 mM Hepes, 2.5 mM probenecid, 0.1% BSA (DMEM assay buffer) cells were loaded with 4 μM Fluo-4 in the same DMEM assay buffer for 2 hours at 30° C. Excess dye was removed and cells were washed with DMEM assay buffer. 384-well compound plates were prepared with DMEM assay buffer/0.5% DMSO with or without various concentrations of test compounds. Usually compounds were tested for agonist and antagonist activity.
Test compounds were added to the assay plate and agonist activity was monitored as fluorescence for 80 seconds with a FLIPR (488 nm excitation; 510-570 nm emission; Molecular Devices). After 20-30 min. of incubation at 30° C., 20 nM MCP-1 (R&D; Roche) was added and fluorescence was monitored again for 80 seconds. Increases in intracellular calcium are reported as maximum fluorescence after agonist exposure minus basal fluorescence before exposure. Antagonist activity is indicated as inhibitor concentration required for 50% inhibition of specific calcium increases.

Row | IC50 | SMILES
1 | 20 nM | C[C@H]1C(=O)N2[C@@H](CCC(=O)N3CCC4(CC4)[C@H](O)C3)CO[C@H]2CN1C(=O)Nc1ccc(C(F)(F)F)c(Cl)c1 [Example 25, (3S,6S,8aS)-3-[3-((S)-4-Hydroxy-6-aza-spiro[2.5]oct-6-yl)-3-oxo-propyl]-6-methyl-5-oxo-hexahydro-oxazolo[3,2-a]pyrazine-7-carboxylic acid (3-chloro-4-trifluoromethyl-phenyl)-amide]
2 | 61.8 nM | C[C@H]1C(=O)N2[C@@H](CCC(=O)N3CCC4(CC4)[C@H](O)C3)CO[C@@H]2CN1C(=O)/C=C/c1ccc(F)c(Cl)c1 [Example 26, (3S,6S,8aR)-7-[(E)-3-(3-Chloro-4-fluoro-phenyl)-acryloyl]-3-[3-((S)-4-hydroxy-6-aza-spiro[2.5]oct-6-yl)-3-oxo-propyl]-6-methyl-hexahydro-oxazolo[3,2-a]pyrazin-5-one]
3 | 49.4 nM | C[C@H]1C(=O)N2[C@@H](CCC(=O)N3CCC4(CC4)[C@H](O)C3)CO[C@H]2CN1C(=O)/C=C/c1ccc(F)c(Cl)c1 [Example 27, (3S,6S,8aS)-7-[(E)-3-(3-Chloro-4-fluoro-phenyl)-acryloyl]-3-[3-((S)-4-hydroxy-6-aza-spiro[2.5]oct-6-yl)-3-oxo-propyl]-6-methyl-hexahydro-oxazolo[3,2-a]pyrazin-5-one]
4 | 3.7 nM | C[C@H]1C(=O)N2C(CN1C(=O)Nc1ccc(Cl)c(Cl)c1)OCCC[C@H]2CN1CCC2(CC2)[C@H](O)C1 (stereo partly drawn) [Example 28, (3S,5S)-5-((S)-4-Hydroxy-6-aza-spiro[2.5]oct-6-ylmethyl)-3-methyl-4-oxo-octahydro-9-oxa-2,4a-diaza-benzocycloheptene-2-carboxylic acid (3,4-dichloro-phenyl)-amide]
5 | 774 nM | C[C@H]1C(=O)N2C(CN1C(=O)Nc1ccc(Cl)c(Cl)c1)OC[C@@H]2CC(=O)N1CCC2(CC2)[C@H](O)C1 (stereo partly drawn) [Example 29, (3S,6S)-3-[2-((S)-4-Hydroxy-6-aza-spiro[2.5]oct-6-yl)-2-oxo-ethyl]-6-methyl-5-oxo-hexahydro-oxazolo[3,2-a]pyrazine-7-carboxylic acid (3,4-dichloro-phenyl)-amide]
6 | 1.5 nM | C[C@H]1C(=O)N2C(CN1C(=O)Nc1ccc(Cl)c(Cl)c1)OCC[C@H]2CN1CCC2(CC2)[C@H](O)C1 (stereo partly drawn) [Example 30, (4S,7S)-4-((S)-4-Hydroxy-6-aza-spiro[2.5]oct-6-ylmethyl)-7-methyl-6-oxo-hexahydro-pyrazino[2,1-b][1,3]oxazine-8-carboxylic acid (3,4-dichloro-phenyl)-amide]
7 | 1.9 nM | C[C@H]1C(=O)N2[C@@H](CCN3CCC4(CC4)[C@H](O)C3)COC[C@H]2CN1C(=O)Nc1ccc(Cl)c(Cl)c1 [Example 31, (4S,7S,9aR)-4-[2-((S)-4-Hydroxy-6-aza-spiro[2.5]oct-6-yl)-ethyl]-7-methyl-6-oxo-hexahydro-pyrazino[2,1-c][1,4]oxazine-8-carboxylic acid (3,4-dichloro-phenyl)-amide]
8 | 2.1 nM | C[C@H]1C(=O)N2[C@@H](CCN3CCC4(CC4)[C@H](O)C3)COC[C@H]2CN1C(=O)Nc1ccc(C(F)(F)F)c(Cl)c1 [Example 32, (4S,7S,9aR)-4-[2-((S)-4-Hydroxy-6-aza-spiro[2.5]oct-6-yl)-ethyl]-7-methyl-6-oxo-hexahydro-pyrazino[2,1-c][1,4]oxazine-8-carboxylic acid (3-chloro-4-trifluoromethyl-phenyl)-amide]

More lines, now with the values behind:

Row | SMILES | IC50
9 | C[C@H]1C(=O)N2[C@@H](CCCN3CCC4(CC4)[C@H](O)C3)COC2(C)CN1C(=O)Nc1ccc(Cl)c(Cl)c1 (stereo partly drawn) [Example 12, (3S,6S)-3-[3-((S)-4-Hydroxy-6-aza-spiro[2.5]oct-6-yl)-propyl]-6,8a-dimethyl-5-oxo-hexahydro-oxazolo[3,2-a]pyrazine-7-carboxylic acid (3,4-dichloro-phenyl)-amide] | 12 nM
10 | C[C@H]1C(=O)N2[C@@H](CCCN3CCC4(CC4)[C@H](O)C3)COC2(C)CN1C(=O)Nc1ccc(C(F)(F)F)c(Cl)c1 (stereo partly drawn) [Example 13, (3S,6S)-3-[3-((S)-4-Hydroxy-6-aza-spiro[2.5]oct-6-yl)-propyl]-6,8a-dimethyl-5-oxo-hexahydro-oxazolo[3,2-a]pyrazine-7-carboxylic acid (3-chloro-4-trifluoromethyl-phenyl)-amide] | 12.7 nM
11 | C[C@H]1C(=O)N2[C@@H](CCN3CCC4(CC4)[C@H](O)C3)CO[C@]2(C)CN1C(=O)Nc1ccc(Cl)c(Cl)c1 [Example 14, (3S,6S,8aR)-3-[2-((S)-4-Hydroxy-6-aza-spiro[2.5]oct-6-yl)-ethyl]-6,8a-dimethyl-5-oxo-hexahydro-oxazolo[3,2-a]pyrazine-7-carboxylic acid (3,4-dichloro-phenyl)-amide] | 11.1 nM
12 | C[C@H]1C(=O)N2C(CN1C(=O)Nc1cccc(Cl)c1)OC[C@@H]2CCCN1CCC2(CC2)[C@H](O)C1 (stereo partly drawn) [Example 15, (3S,6S)-3-[3-((S)-4-Hydroxy-6-aza-spiro[2.5]oct-6-yl)-propyl]-6-methyl-5-oxo-hexahydro-oxazolo[3,2-a]pyrazine-7-carboxylic acid (3-chloro-phenyl)-amide] | 32.8 nM
13 | C[C@H]1C(=O)N2C(CN1C(=O)Nc1ccc(Cl)c(Cl)c1)OC[C@@H]2CCCN1CCC2(CC2)[C@H](O)C1 (stereo partly drawn) [Example 16, (3S,6S)-3-[3-((S)-4-Hydroxy-6-aza-spiro[2.5]oct-6-yl)-propyl]-6-methyl-5-oxo-hexahydro-oxazolo[3,2-a]pyrazine-7-carboxylic acid (3,4-dichloro-phenyl)-amide] | 7.4 nM
14 | C[C@H]1C(=O)N2[C@@H](CCCN3CCC4(CC4)[C@H](O)C3)CO[C@H]2CN1C(=O)Nc1ccc(Cl)c(Cl)c1 [Example 17, (3S,6S,8aS)-3-[3-((S)-4-Hydroxy-6-aza-spiro[2.5]oct-6-yl)-propyl]-6-methyl-5-oxo-hexahydro-oxazolo[3,2-a]pyrazine-7-carboxylic acid (3,4-dichloro-phenyl)-amide] | 2.9 nM
15 | C[C@H]1C(=O)N2[C@@H](CCCN3CCC4(CC4)[C@H](O)C3)CO[C@@H]2CN1C(=O)Nc1ccc(Cl)c(Cl)c1 [Example 18, (3S,6S,8aR)-3-[3-((S)-4-hydroxy-6-aza-spiro[2.5]oct-6-yl)-propyl]-6-methyl-5-oxo-hexahydro-oxazolo[3,2-a]pyrazine-7-carboxylic acid (3,4-dichloro-phenyl)-amide] | 10.2 nM
16 | C[C@H]1C(=O)N2[C@@H](CCCN3CCC4(CC4)[C@H](O)C3)CO[C@H]2CN1C(=O)Nc1cccc(Cl)c1 [Example 19, (3S,6S,8aS)-3-[3-((S)-4-Hydroxy-6-aza-spiro[2.5]oct-6-yl)-propyl]-6-methyl-5-oxo-hexahydro-oxazolo[3,2-a]pyrazine-7-carboxylic acid (3-chloro-phenyl)-amide] | 33.4 nM
17 | C[C@H]1C(=O)N2[C@@H](CCCN3CCC4(CC4)[C@H](O)C3)CO[C@@H]2CN1C(=O)Nc1cccc(Cl)c1 [Example 20, (3S,6S,8aR)-3-[3-((S)-4-hydroxy-6-aza-spiro[2.5]oct-6-yl)-propyl]-6-methyl-5-oxo-hexahydro-oxazolo[3,2-a]pyrazine-7-carboxylic acid (3-chloro-phenyl)-amide] | 177 nM
18 | C[C@H]1C(=O)N2[C@@H](CCCN3CCC4(CC4)[C@H](O)C3)CO[C@@]2(C)CN1C(=O)Nc1ccc(Cl)c(Cl)c1 [Example 21, (3S,6S,8aS)-3-[3-((S)-4-Hydroxy-6-aza-spiro[2.5]oct-6-yl)-propyl]-6,8a-dimethyl-5-oxo-hexahydro-oxazolo[3,2-a]pyrazine-7-carboxylic acid (3,4-dichloro-phenyl)-amide] | 3.8 nM
19 | C[C@H]1C(=O)N2[C@@H](CCCN3CCC4(CC4)[C@H](O)C3)CO[C@]2(C)CN1C(=O)Nc1ccc(Cl)c(Cl)c1 [Example 22, (3S,6S,8aR)-3-[3-((S)-4-hydroxy-6-aza-spiro[2.5]oct-6-yl)-propyl]-6,8a-dimethyl-5-oxo-hexahydro-oxazolo[3,2-a]pyrazine-7-carboxylic acid (3,4-dichloro-phenyl)-amide] | 27.4 nM
20 | C[C@H]1C(=O)N2C(CN1C(=O)Nc1ccc(Cl)c(Cl)c1)OC[C@@H]2CCC(=O)N1CCC2(CC2)[C@H](O)C1 (stereo partly drawn) [Example 23, (3S,6S)-3-[3-((S)-4-Hydroxy-6-aza-spiro[2.5]oct-6-yl)-3-oxo-propyl]-6-methyl-5-oxo-hexahydro-oxazolo[3,2-a]pyrazine-7-carboxylic acid (3,4-dichloro-phenyl)-amide] | 14.4 nM
21 | C[C@H]1C(=O)N2[C@@H](CCC(=O)N3CCC4(CC4)[C@H](O)C3)CO[C@@H]2CN1C(=O)Nc1ccc(C(F)(F)F)c(Cl)c1 [Example 24, (3S,6S,8aR)-3-[3-((S)-4-Hydroxy-6-aza-spiro[2.5]oct-6-yl)-3-oxo-propyl]-6-methyl-5-oxo-hexahydro-oxazolo[3,2-a]pyrazine-7-carboxylic acid (3-chloro-4-trifluoromethyl-phenyl)-amide] | 5.5 nM
